Reference: patent publication US10098895B2, “Treatment of symptoms related to neurodegenerative disorders through pharmacological dermal activation of cranial nerves” (GLIA, LLC, priority 2016, dated 2018)
Entries after “also recorded” stand apart in the source; their conditions may differ.

Columns and labels:
[1] = tested on: herpes ophthalmicus and herpes keratitis; test: Example 8: herpes ophthalmicus and herpes keratitis patient; type: in vivo, human
From the text: A patient experienced an episode of herpes ophthalmicus and herpes keratitis in September 2003, resulting in thinning melt of the left cornea, loss of vision, inflammation, neuralgia, and a rash of blisters to the left forehead, upper nose, and temple with a subsequent full left-face palsy droop, which required multiple cosmetic surgical procedures to provide some symmetry to the face and partial closure to the eyelids of the left eye.
No corneal graft to the left eye could be attempted due to recurrent thinning of the full cornea and inflammation of the vasculature. The patient was treated with ophthalmic prednisolone, topical and systemic antivirals, topical antibiotics, bandage lens, punctal plugs, and over-the-counter artificial tears and gels. This treatment regimen was continued until January 2011 when the cornea thinned to probable melt-through, necessitating corneal patch surgery. Just prior to the surgery, the patient's vision was measured at 20/2000, or finger vision.
The patient started applying 1% progesterone to their forehead twice daily just before corneal patch surgery planned for January 2011. The dose of progesterone was approximately 1 mg per application.
In September 2014, corneal tissue had sufficiently epithelialized at the perimeter to attempt a corneal graft, which was successfully completed. Progesterone 1% was applied daily to the forehead post-surgery. Within 9 months vision was restored to best correct vision pinhole 20/50.
In February 2015, the patient's visual acuity decreased as a result of the rejection of cells at the lower part of the graft. Moderate central staining continued to persist in a band where eyelids could not close. Intraocular pressure (TOP) in the left eye rose to 22 mmHg. The patient was placed on a treatment regimen that included Prednisolone Forte 6× plus Restasis for rejection 2× daily and oral valacycovir, together with mechanically taping the eyelid closed at night.
In May 2016, the patient initiated a course of twice daily dronabinol treatment, 0.5 mg each dose, to both ears. Through July, stabilization was achieved, and all other medications were discontinued. […] Visual acuity improved to 20/40.

[2] = tested on: ocular discomfort, tear film production, tremor; test: Summary of human examples: onset, duration of efficacy and tolerance; type: in vivo; settings: progesterone USP 0.5 to 1 mg per dose, aqueous formulation, to the forehead; all human examples
From the text: Additional findings are that very small doses in contrast to what is required in systemic delivery are required once or twice daily, but the pharmacological agents must be applied in such a manner, and from specified formulations, so that they penetrate to the epidermis. It is unnecessary to go deeper than the epidermis, or to be absorbed into the blood circulation. Thus there are no blood brain barrier issues. […] The activation appears to be remote and not proximate innervation by the agents themselves. A further finding is that there has been no buildup of tolerance after months and years of use.
All human examples of neurodegenerative disorder, Parkinson's, essential tremor, herpes ophthalmicus and chronic ocular graft-versus-host disease, had ocular discomfort and signs and symptoms that were treated by low dose progesterone USP, 0.5 to 1 mg per dose, applied in an aqueous formulation to the forehead. […] The afferent nerve accessed is CN V trigeminal nerve but the efferent parasympathetic signaling was via CN VII facial nerve and a branch the greater petrosal nerve that synapses in the pterygopalatine ganglion to innervate tear film secretion. […]
Another surprising observation is that the duration of efficacy is at least 12 hours with the easily monitored parameters such as ocular comfort, tear film production, or tremor reduction.

[3] = tested on: chronic ocular GVHD; test: Example 6: third case of chronic ocular GVHD, Tearscope examination; type: in vivo, human; settings: progesterone 1% to forehead, single dose
Experimental: A patient with chronic ocular GVHD was examined and found to have ocular surface disease in both eyes, including filamentary keratitis. Upon examination by Tearscope there was a lack of tear film production evident in both eyes along with pronounced filaments in the left eye. They were treated with progesterone 1% to their forehead and re-examined 50 minutes later by Tearscope.

[4] = tested on: Parkinson's disease symptoms; test: Example 2: Parkinson's disease subject, topical progesterone and testosterone; type: in vivo, human
From the text: A person was diagnosed with Parkinson's disease in August of 2015. Notable symptoms include both resting and action tremor of the left hand and fingers, forearm, and, to a lesser extent, the right hand and the left leg. Handwriting and computer keyboard work were difficult. They had ocular symptoms associated with the disease, including dry eye disease with moderate to severe burning and grittiness, rapid blink rate, and partial blinking. They used artificial tears constantly in an attempt to alleviate the ocular symptoms. They had not been on any Parkinson's medications. Their Parkinson's tremor followed an “on-off” cycle that correlated with their stress levels, the “on” cycle being times with low stress and few symptoms, and the “off” cycle induced by stress showing an increase in symptoms.
In late February 2017, the subject started applying single daily doses of 0.125% testosterone to the forehead and ear conchae. By the third day of treatment, the subject was tremor-free for periods of 4-6 hours, and the “on” part of the cycle was more frequent. […] The dose of testosterone was increased to 0.2% once daily in early April.
In July 2017, testosterone application was stopped after a taper to evaluate its effects. […] On Aug. 17, 2017, they reported extreme anxiety.
That same afternoon, the subject applied 0.2% testosterone to their forehead and ear conchae, and the next day reported less anxiety and more “on” cycles. By Aug. 20, 2017, they reported having stabilized on the once daily applications with a 60% or greater increase in “on” periods. On August 28, they reported going 9 hours without tremors and leg spasms. On Aug. 30, 2017, the subject was able to walk 8 miles and exercised in between. They described themself as feeling 100%.

[5] = tested on: c-Fos-positive neurons of the spinal trigeminal nucleus; test: Example 10: effect of topical progesterone on neural c-Fos expression in rat brainstem; type: in vivo; settings: progesterone 1% on the forehead, less than 0.2 mg per dose, two hours later
Experimental: A study was conducted in a rat model using the same formulation of progesterone and the same route of administration as had been used by the individuals in the preceding examples. In the study, 7 rats were treated with progesterone 1% on the forehead, estimated to be less than 0.2 mg per dose, and 6 rats received placebo. Two hours later the animals were perfused and brainstems removed. Brainstem tissues were processed for immunohistochemistry using an anti-c-Fos antibody to identify c-Fos protein in cell nuclei that can be counted to assess the activity of c-Fos-positive neurons. Two regions of the spinal trigeminal nucleus were examined: (i) rostral spinal trigeminal nucleus (Vsp) subnucleus interpolaris/subnucleus caudalis (Vi/Vc) region and (ii) caudal Vsp subnucleus caudalis/cervical 1 (Vc/C1) region. […] The rat model confirmed forehead application of progesterone signaled the neurons responsible for activation of tear film production. Various authors and experiments had confirmed the role of neurons in the rostral subnucleus interpolaris (Vi/Vc) and caudalis (Vc/C1) region of brain stem within the spinal trigeminal nucleus (Vsp), a major termination zone for trigeminal sensory fibers, to innervate the eye. When cFos genes in these neurons are activated, cFos proteins are produced that can be stained to count the number of activated neurons. (Meng et al., 1996; Meng et al., 2013).

In the case of `CC(=O)[C@H]1CC[C@H]2[C@@H]3CCC4=CC(=O)CC[C@]4(C)[C@H]3CC[C@]12C` [progesterone], the corneal thinning ([1]; 1% progesterone to forehead twice daily, approximately 1 mg per application, from January 2011) is reported as “corneal thinning stabilized”, the “best correct vision pinhole” value ([1]; Progesterone 1% daily to forehead after corneal graft, within 9 months) is reported as 20/50 and the corneal melt-through ([1]; progesterone treatment continued over two years) is reported as “without corneal melt-through”. The “tear film breakup and meibomian glands” value ([1]; when using Progesterone 1%) was “tear film breakup was normal and meibomian glands functioned well”, the “duration of ocular comfort per dose” value [2] was “at least 12 hours” and the “time to ocular comfort and tear film secretion” value [2] was “within a few minutes”. The “comfort, patient-reported” value [3] was “improved comfort”, the “filaments in the left eye” value ([3]; 50 minutes later) was “flushing of the filaments in the left eye” and the “tear film production by Tearscope” value ([3]; 50 minutes later) was “production of tear film in secretions in both eyes”. For the same compound, the tremors ([4]; progesterone 1% to forehead) was “no impact on the tremors”, the dry eye disease ([4]; progesterone 1% to forehead, within the first week) was “dry eye disease resolved” and the tremor symptoms ([4]; topical progesterone additionally applied to the ear conchae) was “minimal impact on tremor symptoms”. For the same compound, the dry eye disease ([4]; topical progesterone continued during testosterone abstinence) was “continued to be well managed”, the “number of activated (c-Fos-positive) neurons in the Vc/C1 region, compared to placebo” value [5] was “but not the Vc/C1 region” and the “number of activated (c-Fos-positive) neurons in the Vi/Vc region, compared to placebo” value ([5]; 7 rats vs 6 placebo) was “significantly greater number of activated neurons; also recorded: significant increase in activated neurons”.
